{"source": "patent US20220409617A1", "about": "“Drug Formulations and Methods of Treatment for Metabolic Disorders” (The Regents of the University of California, priority 2019, published 2022)", "key": {"[1]": {"settings": "mouse, in vivo; cited from earlier work"}, "A549 lung cancer cells": {"test_system": "A549 lung cancer cells", "assay": "KRAS-mediated mitochondrial fission in A549 cells", "format": "cell-based, human", "settings": "A549, oncogenic KRAS; 893 5 μM 1 h, leflunomide 50 μM 24 h", "experimental": "3T3-L1 cells were maintained in DMEM with 10% FBS and 1% penicillin-streptomycin until induced to differentiate. 3T3-L1 pre-adipocytes were differentiated as described in (M. P. Valley, et al., Anal. Biochem. 505: 43-50, 2016, the disclosure of which is incorporated herein by reference) with slight modifications. Briefly, pre-adipocytes were grown to confluence. After 2 d, cells were induced with maintenance media containing 500 μM IBMX (15879, Sigma-Aldrich, St. Louis, Mo.), 1 μM dexamethasone (D4902, Sigma-Aldrich), 5 μg/mL bovine insulin (10516, Sigma-Aldrich), and 5 μM troglitazone (50-115-0786, ApexBio). Media was changed every 2-3 d for 7 d. On day 7 post-induction, media was changed to maintenance media+5 μg/mL bovine insulin. On day 9 post-induction, media was changed to maintenance media. Mature adipocytes were used 12-14 d post-induction for all experiments. LSL-KrasG12D mouse embryonic fibroblasts (MEFs) with and without Cre-mediated deletion of the STOP cassette were obtained from David Tuveson (Cold Spring Harbor Laboratory, Cold Spring Harbor N.Y., USA) in 2000. p53^flox/flox MEFs were derived in house (2015) from C57BL/6 mice using standard techniques and immortalized by transient expression of Cre recombinase and deletion of p53. MEFs were cultured and maintained in DMEM with 10% FBS and 1% penicillin-streptomycin. A549 cells were cultured in DMEM with 10% FBS, 1% penicillin-streptomycin and 1% sodium pyruvate. Stock solution of palmitic acid (ACROS Organics, cat # AC129702500) was prepared at 100 mM in ethanol. Palmitate (250 μM) was conjugated to 1% (w/v) fatty-acid free bovine serum albumin (Sigma, A8806) in DMEM at 37° C. for 20 min. For all immunofluorescence assays, 8,000 MEFs were seeded into 8-chamber slides (Cellvis, cat # C8-1.5H-N) 12-16 h before treatment. Cells were pre-treated with sphingolipid-like compound 893 (5 μM in water), myriocin (10 μM in methanol), fumonisin-B1 (30 μM in DMSO), or celastrol (500 nM in DMSO) for 3 h followed by a 3 h treatment with BSA-conjugated palmitate mixture or BSA alone. […]\nMEFs were washed twice with PBS and fixed with 4% paraformaldehyde for 10 min at RT. […] NADH/NADPH autofluorescence was detected with 740 nm excitation and 450±50 nm detectors using a Mai Tai two-photon laser. Fluorescence microscopy was performed on a Zeiss LSM 780 confocal using a 63× oil objective with a […] numerical aperture (NA) or using a Nikon TE2000-S inverted epifluorescence microscope with a 100× oil objective (1.3 NA) and a Photometrics CoolSNAP ES2 monochrome CCD camera. […]"}, "[2]": {"test_system": "mouse embryonic fibroblasts (MEFs)", "assay": "Ceramide-induced (C16:0 CER, C2-ceramide) mitochondrial fragmentation", "format": "cell-based", "experimental": "3T3-L1 cells were maintained in DMEM with 10% FBS and 1% penicillin-streptomycin until induced to differentiate. 3T3-L1 pre-adipocytes were differentiated as described in (M. P. Valley, et al., Anal. Biochem. 505: 43-50, 2016, the disclosure of which is incorporated herein by reference) with slight modifications. Briefly, pre-adipocytes were grown to confluence. After 2 d, cells were induced with maintenance media containing 500 μM IBMX (15879, Sigma-Aldrich, St. Louis, Mo.), 1 μM dexamethasone (D4902, Sigma-Aldrich), 5 μg/mL bovine insulin (10516, Sigma-Aldrich), and 5 μM troglitazone (50-115-0786, ApexBio). Media was changed every 2-3 d for 7 d. On day 7 post-induction, media was changed to maintenance media+5 μg/mL bovine insulin. On day 9 post-induction, media was changed to maintenance media. Mature adipocytes were used 12-14 d post-induction for all experiments. LSL-KrasG12D mouse embryonic fibroblasts (MEFs) with and without Cre-mediated deletion of the STOP cassette were obtained from David Tuveson (Cold Spring Harbor Laboratory, Cold Spring Harbor N.Y., USA) in 2000. p53^flox/flox MEFs were derived in house (2015) from C57BL/6 mice using standard techniques and immortalized by transient expression of Cre recombinase and deletion of p53. MEFs were cultured and maintained in DMEM with 10% FBS and 1% penicillin-streptomycin. A549 cells were cultured in DMEM with 10% FBS, 1% penicillin-streptomycin and 1% sodium pyruvate. Stock solution of palmitic acid (ACROS Organics, cat # AC129702500) was prepared at 100 mM in ethanol. Palmitate (250 μM) was conjugated to 1% (w/v) fatty-acid free bovine serum albumin (Sigma, A8806) in DMEM at 37° C. for 20 min. For all immunofluorescence assays, 8,000 MEFs were seeded into 8-chamber slides (Cellvis, cat # C8-1.5H-N) 12-16 h before treatment. Cells were pre-treated with sphingolipid-like compound 893 (5 μM in water), myriocin (10 μM in methanol), fumonisin-B1 (30 μM in DMSO), or celastrol (500 nM in DMSO) for 3 h followed by a 3 h treatment with BSA-conjugated palmitate mixture or BSA alone. Where cells were treated with C2-ceramide (50 μM in DMSO) or C16:0 ceramide (100 μM in ethanol) for 3 h, cells were pre-treated with sphingolipid-like compound 893 for 1-3 h as indicated, mdivi-1 (50 μM in DMSO) for 1 h or 24 h, M1 (5 μM in DMSO) for 24 h, mdivi-1 and M1 together for 24 h, leflunomide (50 μM in methanol) for 1 h or 24 h, or with P110 (1 μM in water) for 1 h or 12 h. LSL or KRAS^G12D MEFs were treated with sphingolipid-like compound 893 (5 μM) for 6 h prior to fixation.\nMEFs were washed twice with PBS and fixed with 4% paraformaldehyde for 10 min at RT. Cells were permeabilized with 0.3% Triton X-100 in blocking buffer containing 10% fetal bovine serum for 20 min at 37° C. followed by overnight incubation with mouse anti-citrate synthase (sc-390693, Santa Cruz Biotechnology; dilution, 1:200) or rabbit-anti-DRP1 at 1:100 (#8570, Cell Signaling Technology) at 4° C. Cells were then washed twice with PBS and incubated with AlexaFluor 488 goat anti-mouse (A28175, Invitrogen) or AlexaFluor 594 donkey anti-rabbit (A32754, Invitrogen) secondary antibodies at RT followed by 5 min incubation with 1 μg/ml DAPI and 2 washes in PBS. For NADH autofluorescence studies, mice were gavaged with vehicle or 120 mg/kg sphingolipid-like compound 893 at ZT8.5 (4-10.5 h before sacrifice between ZT12.5 and ZT18). Post sacrifice, livers were excised, washed 3× with PBS, placed in DMEM supplemented with 10% FBS and 1% penicillin-streptomycin, and immediately imaged. NADH/NADPH autofluorescence was detected with 740 nm excitation and 450±50 nm detectors using a Mai Tai two-photon laser. Fluorescence microscopy was performed on a Zeiss LSM 780 confocal using a 63× oil objective with a […] numerical aperture (NA) or using a Nikon TE2000-S inverted epifluorescence microscope with a 100× oil objective (1.3 NA) and a Photometrics CoolSNAP ES2 monochrome CCD camera. […]"}}, "data": [{"smiles": "Cc1oncc1C(=O)Nc1ccc(C(F)(F)F)cc1", "note": "[leflunomide]", "values": [{"measurement": "Food intake and body weight in obese mice", "setting": "[1]", "value": "failed to reduce food intake or body weight in obese mice"}, {"measurement": "Reversal of mitochondrial fragmentation / tubularity in A549 cells", "setting": "A549 lung cancer cells", "value": "did not reverse mitochondrial fragmentation in A549 lung cancer cells"}, {"measurement": "Protection from ceramide-induced mitochondrial fragmentation", "setting": "[2]; MEFs, C16:0 CER 100 μM or C2-ceramide 50 μM 3 h, 893 5 μM, mdivi-1 50 μM, M1 5 μM, leflunomide 50 μM, P110 1 μM", "value": "blocked C16:0 ceramide-induced mitochondrial fragmentation after a 24 h, but not a 1 h, pre-incubation"}, {"measurement": "Potency relative to compound 893 (less potent)", "setting": "[2]; blocking ceramide-induced mitochondrial fragmentation in vitro", "value": 10, "unit": "fold"}]}]}
